In ChEMBL document CHEMBL1909046, “DrugMatrix in vitro pharmacology data”:

How the values were obtained:
[1] = DRUGMATRIX: Calcium Channel Type L, Phenylalkylamine radioligand binding (ligand: [3H] (-)-Desmethoxyverapamil (D-888)); assay type: cell membranes, Rattus norvegicus, Wistar, Brain, Membrane; conditions: Not Active = under 50% inhibition at 10 µM
D(4) dopamine receptor = molecular target: T1, D(4) dopamine receptor (Homo sapiens, UniProt P21917); assay: DRUGMATRIX: Dopamine D4.2 radioligand binding (ligand: [3H] Spiperone); assay type: cell membranes, Membrane; conditions: cho-k1; Not Active = under 50% inhibition at 10 µM
T1 sequence (P21917 whole entry): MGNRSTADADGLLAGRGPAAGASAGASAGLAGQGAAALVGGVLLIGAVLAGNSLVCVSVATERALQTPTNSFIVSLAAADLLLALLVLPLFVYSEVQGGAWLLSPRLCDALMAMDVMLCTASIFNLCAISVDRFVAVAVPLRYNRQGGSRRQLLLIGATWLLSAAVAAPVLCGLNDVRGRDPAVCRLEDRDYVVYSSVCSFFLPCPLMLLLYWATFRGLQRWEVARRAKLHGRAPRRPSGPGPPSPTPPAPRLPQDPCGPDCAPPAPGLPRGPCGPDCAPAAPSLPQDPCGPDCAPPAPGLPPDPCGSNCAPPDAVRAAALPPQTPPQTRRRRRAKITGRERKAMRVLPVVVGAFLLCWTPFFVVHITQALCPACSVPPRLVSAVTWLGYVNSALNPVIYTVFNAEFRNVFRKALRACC

[2] = DRUGMATRIX: Purinergic P2X radioligand binding (ligand: [3H] alpha, beta-Methylene-ATP); assay type: cell membranes, Oryctolagus cuniculus, New Zealand albino, Urinary bladder, Membrane; conditions: Not Active = under 50% inhibition at 10 µM
[3] = molecular target: Prostaglandin G/H synthase 1 (Homo sapiens, UniProt P23219); assay: biochemical; assay type: tissue-based, Platelet; conditions: platelet;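 also: inhibition of COX-1 enzyme activity, with arachidonic acid supplied as substrate; in other assays of this panel Not Active means under 50% inhibition at 10 µM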
Prostaglandin G/H synthase 1, sequence (P23219 whole entry): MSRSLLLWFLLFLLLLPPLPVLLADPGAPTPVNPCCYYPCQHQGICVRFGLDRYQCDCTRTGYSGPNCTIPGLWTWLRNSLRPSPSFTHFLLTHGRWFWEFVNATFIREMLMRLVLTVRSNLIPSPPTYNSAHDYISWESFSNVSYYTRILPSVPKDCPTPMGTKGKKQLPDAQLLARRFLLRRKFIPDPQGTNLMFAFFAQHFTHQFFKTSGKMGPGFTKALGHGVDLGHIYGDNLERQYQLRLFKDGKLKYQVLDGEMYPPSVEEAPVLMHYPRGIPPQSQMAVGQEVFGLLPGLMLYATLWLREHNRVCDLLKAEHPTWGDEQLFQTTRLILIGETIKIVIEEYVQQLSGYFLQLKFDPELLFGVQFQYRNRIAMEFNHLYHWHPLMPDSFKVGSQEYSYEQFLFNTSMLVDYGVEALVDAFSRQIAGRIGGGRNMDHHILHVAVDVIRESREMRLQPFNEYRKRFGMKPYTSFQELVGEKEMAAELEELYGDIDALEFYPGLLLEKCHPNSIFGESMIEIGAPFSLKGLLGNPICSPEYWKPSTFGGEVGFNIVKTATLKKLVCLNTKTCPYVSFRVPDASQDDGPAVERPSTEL

[4] = molecular target: T2, 5-hydroxytryptamine receptor 2C (Homo sapiens, UniProt P28335); assay: DRUGMATRIX: Serotonin (5-Hydroxytryptamine) 5-HT2C radioligand binding (ligand: [3H] Mesulergine); assay type: cell membranes, CHO-K1, Membrane; conditions: cho-k1; Not Active = under 50% inhibition at 10 µM
T2 sequence (P28335 whole entry): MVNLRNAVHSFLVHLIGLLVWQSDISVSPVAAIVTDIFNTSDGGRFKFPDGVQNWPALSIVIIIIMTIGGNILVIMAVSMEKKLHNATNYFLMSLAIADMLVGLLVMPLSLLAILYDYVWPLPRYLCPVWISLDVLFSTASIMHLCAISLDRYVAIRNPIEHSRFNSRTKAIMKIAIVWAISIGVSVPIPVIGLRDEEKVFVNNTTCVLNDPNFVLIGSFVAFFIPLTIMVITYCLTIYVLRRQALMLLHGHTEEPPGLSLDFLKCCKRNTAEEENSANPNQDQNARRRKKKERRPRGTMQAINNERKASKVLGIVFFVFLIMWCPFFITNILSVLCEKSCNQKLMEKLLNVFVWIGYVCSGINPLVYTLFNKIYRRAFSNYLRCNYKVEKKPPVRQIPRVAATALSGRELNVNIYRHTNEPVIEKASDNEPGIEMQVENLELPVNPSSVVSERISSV

[5] = DRUGMATRIX: Sigma2 radioligand binding (ligand: [3H] Ifenprodil); assay type: cell membranes, Rattus norvegicus, Wistar, Brain, Membrane; conditions: Not Active = under 50% inhibition at 10 µM

O=NN(CCCl)C(=O)NCCCl [CARMUSTINE]
Not Active: IC50 [1] | Ki [1] | IC50 (D(4) dopamine receptor) | IC50 [2] | Ki [2] | IC50 [3] | IC50 [4] | IC50 [5] | Ki [5]

CC1=C(C(=O)O)N2C(=O)[C@@H](NC(=O)[C@H](N)c3ccccc3)[C@H]2SC1 [CEPHALEXIN ANHYDROUS]
Not Active: IC50 [1] | Ki [1] | IC50 (D(4) dopamine receptor) | IC50 [2] | Ki [2] | IC50 [3] | IC50 [4] | IC50 [5] | Ki [5]

O=C(N[C@H](CO)[C@H](O)c1ccc([N+](=O)[O-])cc1)C(Cl)Cl [CHLORAMPHENICOL]
Not Active: IC50 [1] | Ki [1] | IC50 (D(4) dopamine receptor) | IC50 [2] | Ki [2] | IC50 [3] | IC50 [4] | IC50 [5] | Ki [5]

ClC(Cl)Cl [CHLOROFORM]
Not Active: IC50 [1] | Ki [1] | IC50 (D(4) dopamine receptor) | IC50 [2] | Ki [2] | IC50 [3] | IC50 [4] | IC50 [5] | Ki [5]

C=C1CC[C@H](O)C/C1=C/C=C1\CCC[C@]2(C)[C@@H]([C@H](C)CCCC(C)C)CC[C@@H]12 [CHOLECALCIFEROL]
Not Active: IC50 [1] | Ki [1] | IC50 (D(4) dopamine receptor) | IC50 [2] | Ki [2] | IC50 [3] | IC50 [4] | IC50 [5] | Ki [5]

C[N+](C)(C)CCO.[Cl-] [CHOLINE CHLORIDE]
Not Active: IC50 [1] | Ki [1] | IC50 (D(4) dopamine receptor) | IC50 [2] | Ki [2] | IC50 [3] | IC50 [4] | IC50 [5] | Ki [5]

CCOC(=O)C(C)(C)Oc1ccc(Cl)cc1 [CLOFIBRATE]
Not Active: IC50 [1] | Ki [1] | IC50 (D(4) dopamine receptor) | IC50 [2] | Ki [2] | IC50 [3] | IC50 [4] | IC50 [5] | Ki [5]

CC(=O)OCC(=O)[C@@]1(O)CC[C@H]2[C@@H]3CCC4=CC(=O)CC[C@]4(C)[C@H]3C(=O)C[C@@]21C [CORTISONE ACETATE]
Not Active: IC50 [1] | Ki [1] | IC50 (D(4) dopamine receptor) | IC50 [2] | Ki [2] | IC50 [3] | IC50 [4] | IC50 [5] | Ki [5]

O=c1ccc2ccccc2o1 [COUMARIN]
Not Active: IC50 [1] | Ki [1] | IC50 (D(4) dopamine receptor) | IC50 [2] | Ki [2] | IC50 [3] | IC50 [4] | IC50 [5] | Ki [5]

C[C@@H]1C[C@@H]([C@H](O)CC2CC(=O)NC(=O)C2)C(=O)[C@@H](C)C1 [CYCLOHEXIMIDE]
Not Active: IC50 [1] | Ki [1] | IC50 (D(4) dopamine receptor) | IC50 [2] | Ki [2] | IC50 [3] | IC50 [4] | IC50 [5] | Ki [5]

C/C=C/C[C@@H](C)[C@@H](O)[C@H]1C(=O)N[C@@H](CC)C(=O)N(C)CC(=O)N(C)[C@@H](CC(C)C)C(=O)N[C@@H](C(C)C)C(=O)N(C)[C@@H](CC(C)C)C(=O)N[C@@H](C)C(=O)N[C@H](C)C(=O)N(C)[C@@H](CC(C)C)C(=O)N(C)[C@@H](CC(C)C)C(=O)N(C)[C@@H](C(C)C)C(=O)N1C [CYCLOSPORINE]
Not Active: IC50 [1] | Ki [1] | IC50 (D(4) dopamine receptor) | IC50 [2] | Ki [2] | IC50 [3] | IC50 [4] | IC50 [5] | Ki [5]

CN(C)/N=N/c1[nH]cnc1C(N)=O [DACARBAZINE]
Not Active: IC50 [1] | Ki [1] | IC50 (D(4) dopamine receptor) | IC50 [2] | Ki [2] | IC50 [3] | IC50 [4] | IC50 [5] | Ki [5]

COc1ccc2c(c1)[C@]13CCCC[C@@H]1[C@H](C2)N(C)CC3 [DEXTROMETHORPHAN]
Not Active: IC50 [1] | Ki [1] | IC50 (D(4) dopamine receptor) | IC50 [2] | Ki [2] | IC50 [3] | IC50 [4] | IC50 [5] | Ki [5]

CC(=O)Nc1c(I)c(NC(C)=O)c(I)c(C(=O)O)c1I [DIATRIZOIC ACID]
Not Active: IC50 [1] | Ki [1] | IC50 (D(4) dopamine receptor) | IC50 [2] | Ki [2] | IC50 [3] | IC50 [4] | IC50 [5] | Ki [5]

COP(=O)(OC)OC=C(Cl)Cl [DICHLORVOS]
Not Active: IC50 [1] | Ki [1] | IC50 (D(4) dopamine receptor) | IC50 [2] | Ki [2] | IC50 [3] | IC50 [4] | IC50 [5] | Ki [5]

C[C@H]1O[C@@H](O[C@H]2[C@@H](O)C[C@H](O[C@H]3[C@@H](O)C[C@H](O[C@H]4CC[C@@]5(C)[C@H](CC[C@@H]6[C@@H]5CC[C@]5(C)[C@@H](C7=CC(=O)OC7)CC[C@]65O)C4)O[C@@H]3C)O[C@@H]2C)C[C@H](O)[C@@H]1O [DIGITOXIN]
Not Active: IC50 [1] | Ki [1] | IC50 (D(4) dopamine receptor) | IC50 [2] | Ki [2] | IC50 [3] | IC50 [4] | IC50 [5] | Ki [5]

CCN1CC(CCN2CCOCC2)C(c2ccccc2)(c2ccccc2)C1=O (stereo unspecified) [DOXAPRAM]
Not Active: IC50 [1] | Ki [1] | IC50 (D(4) dopamine receptor) | IC50 [2] | Ki [2] | IC50 [3] | IC50 [4] | IC50 [5] | Ki [5]

Cn1c(=O)c2c(ncn2CC2OCCO2)n(C)c1=O [DOXOFYLLINE]
Not Active: IC50 [1] | Ki [1] | IC50 (D(4) dopamine receptor) | IC50 [2] | Ki [2] | IC50 [3] | IC50 [4] | IC50 [5] | Ki [5]

COc1cccc2c1C(=O)c1c(O)c3c(c(O)c1C2=O)C[C@@](O)(C(=O)CO)C[C@@H]3O[C@H]1C[C@H](N)[C@H](O)[C@H](C)O1 [DOXORUBICIN]
Not Active: IC50 [1] | Ki [1] | IC50 (D(4) dopamine receptor) | IC50 [2] | Ki [2] | IC50 [3] | IC50 [4] | IC50 [5] | Ki [5]

COc1cccc2c1C(=O)c1c(O)c3c(c(O)c1C2=O)C[C@@](O)(C(=O)CO)C[C@@H]3O[C@H]1C[C@H](N)[C@@H](O)[C@H](C)O1 [EPIRUBICIN]
Not Active: IC50 [1] | Ki [1] | IC50 (D(4) dopamine receptor) | IC50 [2] | Ki [2] | IC50 [3] | IC50 [4] | IC50 [5] | Ki [5]

C[C@]12CC[C@@H]3c4ccc(OC(=O)c5ccccc5)cc4CC[C@H]3[C@@H]1CC[C@@H]2O [ESTRADIOL BENZOATE]
Not Active: IC50 [1] | Ki [1] | IC50 (D(4) dopamine receptor) | IC50 [2] | Ki [2] | IC50 [3] | IC50 [4] | IC50 [5] | Ki [5]

C[C@]12CC[C@@H]3c4ccc(O)cc4CC[C@H]3[C@@H]1CC[C@@H]2O [ESTRADIOL]
Not Active: IC50 [1] | Ki [1] | IC50 (D(4) dopamine receptor) | IC50 [2] | Ki [2] | IC50 [3] | IC50 [4] | IC50 [5] | Ki [5]

CC[C@@H](CO)NCCN[C@@H](CC)CO [ETHAMBUTOL]
Not Active: IC50 [1] | Ki [1] | IC50 (D(4) dopamine receptor) | IC50 [2] | Ki [2] | IC50 [3] | IC50 [4] | IC50 [5] | Ki [5]

CC1(C)O[C@@H]2C[C@H]3[C@@H]4C[C@H](F)C5=CC(=O)C=C[C@]5(C)[C@H]4[C@@H](O)C[C@]3(C)[C@]2(C(=O)CO)O1 [FLUNISOLIDE]
Not Active: IC50 [1] | Ki [1] | IC50 (D(4) dopamine receptor) | IC50 [2] | Ki [2] | IC50 [3] | IC50 [4] | IC50 [5] | Ki [5]
